Values of other authors, collected in publication PMC12808597, “Spatially diffuse cAMP signalling with oppositely biased GLP-1 receptor agonists in β-cells despite differences in receptor localisation” (Molecular Metabolism, 2025).
No end group written: not given here.

What was measured:
BRIN-BD11 clonal β-cells = conditions: ref [5]
Excerpt: (§1) In this work we relied on agonist-specific patterns of internalisation to provide selective endosomal or plasma membrane localisation of active GLP-1R. Alternative approaches include pharmacological or genetic inhibition of receptor internalisation, for example the small molecule dynamin inhibitor dyngo4A [55] or overexpression of dominant negative dynamin K44 mutants, both of which have been used to probe the importance of GLP-1R internalisation on its signalling responses.

HEK293 cells = conditions: ref [16]
Excerpt: as §1

GLP-1R [1] = conditions: ref [6],[26]
Excerpt: In this context, interest has emerged in GLP-1R agonist ligands (GLP-1RAs) showing distinct trafficking profiles, which could lead to altered signalling from intracellular locations [[14], [15], [16]], as has been extensively noted for other GPCRs [[17], [18], [19]].

GLP-1R [2] = conditions: ref [12]
Excerpt: GPCR signalling localisation is now a major area of research interest. Inherent to this phenomenon is the assumption that signalling responses are subject to tight spatial control, for example in the form of sharp cAMP concentration gradients close to the site of generation. Indeed, this has been reported when comparing GLP-1-induced cAMP responses at different plasma membrane nanodomains in HEK293 cells with overexpressed GLP-1R [12]. This contrasts somewhat with the current work in which cAMP was rapidly detected at intracellular locations distant from the activated GLP-1R in β-cell ...

rodent systems = conditions: no reference given

O=C(N/N=C/c1ccc(O)c(O)c1)c1cc2ccccc2cc1O [dynasore]
Effect on exendin-4-induced cAMP production (BRIN-BD11 clonal β-cells): reduced exendin-4-induced cAMP production

O=C(N/N=C/c1cc(O)c(O)cc1O)c1cc2ccccc2cc1O [dyngo4a]
Effect on GLP-1RA signalling responses (HEK293 cells): broad inhibition of GLP-1RA signalling responses

AMG133: GLP-1RA/GIPR antagonistic antibody
GLP-1R-mediated delivery to early endosomes (GLP-1R [1]): enhanced GLP-1R-mediated delivery to early endosomes

GLP-1: GLP-1, as used in Anton et al. [12] (HAEGTFTSDVSSYLEGQAAKEFIAWLVKGR; ends and bridges not checked; UniProt P01275 98-127, looked up)
cAMP at GLP-1R nanodomain (GLP-1R [2]; GLP-1 1 pM): cAMP increases within 60 nm of the GLP-1R in HEK293 cells without changes to whole cell or overall plasma membrane cAMP
cAMP gradient at GLP-1R nanodomain (GLP-1R [2]; GLP-1 1 nM and 100 nM): no such gradient was seen

Cc1cc(-n2nc3c(c2-n2ccn(-c4ccc5c(cnn5C)c4F)c2=O)[C@H](C)N(C(=O)c2cc4cc([C@H]5CCOC(C)(C)C5)ccc4n2[C@@]2(c4noc(=O)[nH]4)C[C@@H]2C)CC3)cc(C)c1F [orforglipron]
Activity in rodent systems (rodent systems): inactive
